Experimental data from patent US4382142A, “Thiadiazole derivatives and process for preparing same” (Kowa Co., Ltd., priority 1978, dated 1983).
Structures can show the parent of a compound that is named as a salt. Where two headings read alike, the source gives them in different places.

Legend:
P388 leukemia = assay: Antitumor test: survival of CDF1 mice inoculated intraperitoneally with P388 leukemia; format: in vivo; conditions: Mus musculus, ip, i.p., 24 hours and 5 days after inoculation, 10^6 P388 i.p., read-out: Survival Effect (survival days of treated relative to control animals); for response vs control in vivo at 200 mg/kg: 200 mg/kg/day; for response vs control in vivo at 400 mg/kg: 400 mg/kg/day
Protocol: Each experimental group was composed of six CDF1 mice. The mice were
inoculated intraperitoneally with 10^6 P388 leukemia, and the test
compounds dissolved in a physiological salt solution were administered
intraperitoneally to the animals 24 hours and 5 days, respectively, after
the inoculation. The survival effect of each of the compounds was
expressed by the percentage of the survival days of the treated animals i
each group relative to those of the control animals.

[1] = Acute toxicity (LD50, Litchfield-Wilcoxon method) after intraperitoneal injection in ddy mice; conditions: mouse, in vivo, ip
Protocol: The median lethal dose (LD50) of each of the test compounds was
determined by the LitchfieldWilcoxon method after the intraperitoneal
injection of the compound into ddy mice.

[2] = intraperitoneal, ddy mice, read-out: Acute Toxicity LD50

Row | Structure (SMILES) | response vs control in vivo at 200 mg/kg (P388 leukemia) [%] | response vs control in vivo at 400 mg/kg (P388 leukemia) [%] | LD50 [1] [mg/kg] | response vs control in vivo at 100 mg/kg (P388 leukemia; 100 mg/kg/day) [%] | response vs control in vivo at 460 mg/kg (P388 leukemia; 460 mg/kg/day) [%] | response vs control in vivo at 600 mg/kg (P388 leukemia; 600 mg/kg/day) [%] | LD50 [1, 2] [mg/kg]
1 | CC(C)CC(N)C(=O)Nc1nncs1 (stereo not drawn) [A, 2DL-Leucylamino-1,3,4-thiadiazole.hydrochloride] | 141 | 154 | > 1600 | – | – | – | –
2 | CC(C)C[C@H](N)C(=O)Nc1nncs1 [B, 2L-Leucylamino-1,3,4-thiadiazole.hydrochloride] | 144 | 161 | > 500 | – | – | – | –
3 | CC(C)C[C@@H](N)C(=O)Nc1nncs1 [C, 2D-Leucylamino-1,3,4-thiadiazole.hydrochloride] | 116 | 157 | > 500 | – | – | – | –
4 | CCC(C)C(N)C(=O)Nc1nncs1 (stereo not drawn) [D, 2DL-Isoleucylamino-1,3,4-thiadiazole.dihydrochloride] | 157 | – | 357 | – | – | – | –
5 | CC(C)C(N)C(=O)Nc1nncs1 (stereo not drawn) [E, 2DL-Valylamino-1,3,4-thiadiazole.hydrochloride] | 143 | 155 | > 1600 | – | – | – | –
6 | CC(C)[C@H](N)C(=O)Nc1nncs1 [F, 2L-Valylamino-1,3,4-thiadiazole.hydrochloride] | 183 | 190 | > 500 | – | – | – | –
7 | CC(C)[C@@H](N)C(=O)Nc1nncs1 [G, 2D-Valylamino-1,3,4-thiadiazole.hydrochloride] | 93 | 102 | > 500 | – | – | – | –
8 | CSCCC(N)C(=O)Nc1nncs1 (stereo not drawn) [H, 2DL-Methionylamino-1,3,4-thiadiazole.hydrochloride] | 121 | 124 | > 1600 | – | – | – | –
9 | NC(C(=O)Nc1nncs1)c1ccccc1 (stereo not drawn) [I, 2Dl-Phenylglycylamino-1,3,4-thiadiazole.hydrobromide] | 125 | 146 | > 1600 | – | – | – | –
10 | NC1(C(=O)Nc2nncs2)CCCC1 [J, 2Cycloleucylamino-1,3,4-thiadiazole.hydrochloride] | – | – | 165 | 153 | – | – | –
11 | N[C@@H](CC(=O)O)C(=O)Nc1nncs1 [K, 2L-Aspartylamino-1,3,4-thiadiazole.monohydrate] | – | – | > 1600 | – | 116 | 119 | –
12 | N[C@@H](Cc1c[nH]c2ccccc12)C(=O)Nc1nncs1 [L, 2L-Tryptophylamino-1,3,4-thiadiazole.hydrochloride] | 143 | 151 | – | – | – | – | 1200
13 | N[C@@H](Cc1ccccc1)C(=O)Nc1nncs1 [M, 2L-Phenylalanylamino-1,3,4-thiadiazole.hydrobromide] | 145 | 156 | – | – | – | – | 1200
